Laboratory results taken from patent publication US11701315B2, “High energy visible light filter systems with yellowness index values” (High Performance Optics, Inc., priority 2006, dated 2023).

Columns and labels:
[1] = in methanol, cited from earlier work
[2] = Transmission and absorption properties stated in the text for known lenses and dyes; type: physicochemical

SMILES	maximum of excitation spectrum ([1]; monitored at 600 nm emission)	major peak of absorbance spectrum [1]	absorption maximum [2]
CC1=C(/C=C/C(C)=C/C=C/C(C)=C/c2cc(/C=C/C=C(C)/C=C/C3=C(C)CCCC3(C)C)cc[n+]2CCO)C(C)(C)CCC1 [A2E]	418 nm	435 nm	–
c1cc2cccc3c4cccc5cccc(c(c1)c23)c54 [perylene]	–	–	437 nm
